Patent publication US7071165B2, “LHRH antagonist peptides” (Indiana University Research and Technology Corporation, priority 1995, dated 2006)
Structures can show the parent of a compound that is named as a salt. Starred links: 1 amine or outer side, 2 acyl side, 3 side chain; linkers in the order of their positions; H or OH if unused. Non-standard residues stand in square brackets, D forms with d. Residues, ends and D or L forms follow the SMILES beside them. *: point of attachment. X2 = O=C([C@@H](Cc1ccc[n+](Cc2ccccc2)c1)N[*:1])[*:2]; dPhe(4-Cl) = N[C@H](Cc1ccc(Cl)cc1)C(=O)O; X3 = C[S+](C)CC[C@@H](N[*:1])C(=O)[*:2]; X4 = C[S+](C)CC[C@H](N[*:1])C(=O)[*:2]; d2Nal = N[C@H](Cc1ccc2ccccc2c1)C(=O)O; Lys(iPr) = CC(C)NCCCC[C@H](N)C(=O)O; NMeY = CN[C@@H](Cc1ccc(O)cc1)C(=O)O; d3Pal = N[C@H](Cc1cccnc1)C(=O)O; NHCH2CH2SO3H = O=S(=O)(O)CCN*; X1 = O=C(c1ccc[n+]([O-])c1)*; Sar = CNCC(=O)O

Columns and labels:
[1] = test system: rat mast cells; experiment: Histamine release assay, rat mast cells
Method: The term “histamine-releasing activity”, as used herein, refers to the tendency of a compound to release histamine when administered to a subject. The histamine-releasing activity of a compound can be measured with an in vitro assay (described in more detail, infra). […] Histamine-releasing activity was assayed by the method described in U.S. Pat. No. 4,851,385 to Roeske. Briefly, a suspension of rat mast cells was added to increasing concentrations of an LHRH antagonist peptide and incubated for 15 minutes at 37° C. The buffer contained 25 mM PIPES, pH 7.4, NaCl (119 mM), KCl (5 mM), NaOH (40 mM) glucose (5.6 mM), CaCl2 (1 mM) and 0.1% bovine serum albumin.

[2] = test system: ovulation in female rats; experiment: Anti-ovulatory activity (AOA) in vivo assay in rats; parameters: species or system rat; conditions: for AO activity (AOA), in words: rat, in vivo
Method: As used herein, “LHRH antagonist peptide” is intended to include peptides and peptide analogs which inhibit LHRH activity (i.e., has “LHRH antagonist activity”) in vivo or in vitro. Candidate LHRH antagonist peptides can be assayed, for example, in the animal model described in Corbin and Beattie, Endocrine Res. Commun. 2:1 (1975) (and see infra). In this assay, the LHRH antagonistic activity of a candidate compound is assayed by measuring the antiovulatory activity (AOA) of the compound in rats.
Anti-ovulatory activity (AOA) was measured by an in vivo assay in rats, as described in Corbin and Beattie, Endocrine Res. Commun. 2:1 (1975). In brief, female rats are injected with a candidate LHRH antagonist on the day of proestrus; in general, the candidate LHRH antagonist was dissolved in 0.1% DMSO. The ability of the candidate peptide to inhibit ovulation is measured by determining the number of rats which ovulate. A candidate peptide is considered to have LHRH antagonist qualities if it inhibits ovulation in at least 50% of the treated rats at a dose of 5 μg per rat. Preferred LHRH antagonists inhibit ovulation in at least 50% of rats at a dose of 2 μg per rat, more preferably at a dose of […], and still more preferably at a dose of 0.5 μg per rat.

[3] = test system: ovulation in female rats; experiment: as above; conditions: dose 0.5 μg per rat
[4] = rat mast cells, 15 minutes at 37° C.

Histamine-releasing activity, in words [1] | Molecule | Histamine release ED50 [1, 4] [µg/mL] | AO activity (AOA): rats which ovulate / rats treated ([2]; dose 1 μg per rat) | AO activity (AOA): rats which ovulate / rats treated [3] | also measured
very low histamine release | CC(=O)N[C@H](Cc1ccc2ccccc2c1)C(=O)N[C@H](Cc1ccc(Cl)cc1)C(=O)N[C@H](Cc1cccnc1)C(=O)N[C@@H](CO)C(=O)N[C@@H](Cc1ccc(O)cc1)C(=O)N[C@H](CC(N)=O)C(=O)N[C@@H](CC(C)C)C(=O)N[C@@H](CCCCNC(C)C)C(=O)N1CCC[C@H]1C(=O)N[C@H](C)C(N)=O [Compound 3342, Ac-D-Nal^1,4-Cl-D-Phe^2, D-Pal^3, D-Asn^6-Lys(iPr)^8, D-Ala^10-LHRH.TFA] (Ac-[d2Nal][dPhe(4-Cl)][d3Pal]SY[dN]L[Lys(iPr)]P[dA]-NH2) | – | – | – | –
very low histamine release | CC(=O)N[C@H](Cc1ccc2ccccc2c1)C(=O)N[C@H](Cc1ccc(Cl)cc1)C(=O)N[C@H](Cc1cccnc1)C(=O)N[C@@H](CO)C(=O)N[C@@H](Cc1ccc(O)cc1)C(=O)N[C@@H](C(=O)N[C@@H](CC(C)C)C(=O)N[C@@H](CCCCNC(C)C)C(=O)N1CCC[C@H]1C(=O)N[C@H](C)C(N)=O)[C@H](C)O [Compound 3343, Ac-D-Nal^1,4-Cl-D-Phe^2, D-Pal^3, D-Thr^6-Lys(iPr)^8, D-Ala^10-LHRH.TFA] (Ac-[d2Nal][dPhe(4-Cl)][d3Pal]SY[dT]L[Lys(iPr)]P[dA]-NH2) | – | – | – | –
very low histamine release | CC(=O)N[C@H](Cc1ccc2ccccc2c1)C(=O)N[C@H](Cc1ccc(Cl)cc1)C(=O)N[C@H](Cc1cccnc1)C(=O)N[C@@H](CO)C(=O)N[C@@H](Cc1ccc(O)cc1)C(=O)N[C@H](CCC(=O)NCCS(=O)(=O)O)C(=O)N[C@@H](CC(C)C)C(=O)N[C@@H](CCCCNC(C)C)C(=O)N1CCC[C@H]1C(=O)N[C@H](C)C(N)=O [Compound 3361, Ac-D-Nal^1,4-Cl-D-Phe^2, D-Pal^3, D-Glu(Taurine)^6-Lys(iPr)^8, D-Ala^10-LHRH.TFA] (Ac-[d2Nal][dPhe(4-Cl)][d3Pal]SY[dE](NHCH2CH2SO3H)L[Lys(iPr)]P[dA]-NH2) | – | – | – | –
very little histamine-releasing activity | CC(=O)N(C)CC(=O)N[C@H](Cc1ccc(Cl)cc1)C(=O)N[C@H](Cc1ccc2ccccc2c1)C(=O)N[C@@H](CO)C(=O)N[C@@H](Cc1ccc(O)cc1)C(=O)N[C@H](Cc1ccc[n+](Cc2ccccc2)c1)C(=O)N[C@@H](CC(C)C)C(=O)N[C@@H](CCCCNC(C)C)C(=O)N1CCC[C@H]1C(=O)N[C@H](C)C(N)=O [Compound 3763, Ac-Sar^1,4-Cl-D-Phe^2, D-Nal^3, D-Pal(Bzl)^6, Lys(iPr)^8, D-Ala^10-LHRH.2TFA] (Ac-[Sar][dPhe(4-Cl)][d2Nal]SY[X2]L[Lys(iPr)]P[dA]-NH2) | – | – | – | –
low histamine releasing activity | CC(=O)N[C@H](Cc1ccc2ccccc2c1)C(=O)N[C@H](Cc1ccc(Cl)cc1)C(=O)N[C@H](Cc1cccnc1)C(=O)N[C@@H](CO)C(=O)N(C)[C@@H](Cc1ccc(O)cc1)C(=O)N[C@H](CCCCNC(=O)c1ccc[n+]([O-])c1)C(=O)N[C@@H](CC(C)C)C(=O)N[C@@H](CCCCNC(C)C)C(=O)N1CCC[C@H]1C(=O)N[C@H](C)C(N)=O [Compound 3828, Ac-D-Nal^1,4-Cl-D-Phe^2, D-Pal^3, N-Me-Tyr^5, D-Lys(Onic)^8, Lys(iPr)^8, D-Ala^10-LHRH.TFA] (Ac-[d2Nal][dPhe(4-Cl)][d3Pal]S[NMeY][dK](X1)L[Lys(iPr)]P[dA]-NH2) | – | – | – | –
low histamine release | CC(=O)N[C@H](Cc1ccc2ccccc2c1)C(=O)N[C@H](Cc1ccc(Cl)cc1)C(=O)N[C@H](Cc1c[nH]c2ccccc12)C(=O)N[C@@H](CO)C(=O)N[C@@H](Cc1ccc(O)cc1)C(=O)N[C@H](CC[S+](C)C)C(=O)N[C@@H](CC(C)C)C(=O)N[C@@H](CC[S+](C)C)C(=O)N1CCC[C@H]1C(=O)N[C@H](C)C(N)=O [Compound 3925, Ac-D-Nal^1,4-Cl-D-Phe^2, D-Trp^3, D-Met(S^+Me)^6, Met(S^+Me)^8, D-Ala^10-LHRH.2TFA] (Ac-[d2Nal][dPhe(4-Cl)][dW]SY[X3]L[X4]P[dA]-NH2) | – | – | – | –
– | Ac-D-(or L)-Ada-Ala^1, 4-Cl-D-Phe^2, D-Pal^3, D-Cit^6-Lys(iPr)^8, D-Ala^10-LHRH.TFA [Compound 3368] | 34 | – | – | AO activity (AOA): rats which ovulate / rats treated ([2]; dose 5 μg per rat): 5/8@5 μg
– | Ac-D-Nal^1, 4-Cl-D-Phe^2, D-Pal^3, 4-Cl-Phe^5, D-Pal(iPr)^6, Lys(iPr)^8, D-Ala^10-LHRH.2TFA [Compound 3851] | – | 0/8@1.0 | 6/8@0.5 | AO activity (AOA), in words [2]: unexpectedly active; Histamine release ED50 ([1]; footnote a: run with Nal arg reference 0.11): 4.1 µg/mL; Histamine release ED50 ([1]; footnote b: run with Nal arg reference 0.14): 5.4 µg/mL
– | Ac-D-Nal^1, 4-Cl-D-Phe^2, D-Pal^3, D-Arg^6, Met(S^+Me)^8, D-Ala^10-LHRH.2TFA [Compound 3983] | – | 0/8@1.00 | 8/8@0.5 | AO activity (AOA), in words [2]: high AOA; Histamine release ED50 ([1]; footnote g: run with Nal arg reference 0.1): 5.35 µg/mL; Histamine release ED50 ([1]; footnote h: run with Nal arg reference 0.02): 1.32 µg/mL
– | Ac-D-Nal^1, 4-Cl-D-Phe^2, D-Pal^3, D-Cit^6-Lys(iPr)^8, Pip^9-D-Ala^10-LHRH.TFA [Compound 3344] | 32 | 9/10@1 μg | – | –
– | Ac-D-Nal^1, 4-Cl-D-Phe^2, D-Pal^3, D-Cit^6-Lys(iPr)^8, Pip^9-LHRH.TFA [Compound 3363] | 25 | 6/8@1 μg | – | –
– | Ac-D-Nal^1, 4-Cl-D-Phe^2, D-Pal^3, D-Cit^6-Lys(iPr)^8, ProNHEt^9-des-Gly^10-LHRH.TFA [Compound 3365] | 24 | – | – | –
– | Ac-D-Nal^1, 4-Cl-D-Phe^2, D-Pal^3, D-Cit^6-Lys(iPr)^8-LHRH.TFA [Compound 3362] | 22 | 4/8@1 μg | – | –
– | Ac-D-Nal^1, 4-Cl-D-Phe^2, D-Pal^3, D-Lys(Imdac)^6, Lys(iPr)^8, D-Ala^10-LHRH.TFA [Compound 3741] | – | 1/8@1.0 | 6/8@0.5 | AO activity (AOA), in words [2]: good AO activity
– | Ac-D-Nal^1, 4-Cl-D-Phe^2, D-Pal^3, D-Lys(OTac)^6, Lys(iPr)^8, D-Ala^10-LHRH.TFA [Compound 3508] | – | 0/8@1 μg | 6/8@0.5 μg | –
– | Ac-D-Nal^1, 4-Cl-D-Phe^2, D-Pal^3, D-Lys(Ppic)^6, Lys(iPr)^8, D-Ala^10-LHRH.TFA [Compound 3760] | – | 1/8@1.0 | 7/8@0.5 | AO activity (AOA), in words [2]: good AO activity
– | Ac-D-Nal^1, 4-Cl-D-Phe^2, D-Pal^3, D-Lys(iPrPic)^6, Lys(iPr)^8, D-Ala^10-LHRH.TFA [Compound 3438] | 5.6 | 2/8@1 μg | – | –
– | Ac-D-Nal^1, 4-Cl-D-Phe^2, D-Pal^3, D-Phe(4-NO2)^6-Lys(iPr)^8, D-Ala^10-LHRH.TFA [Compound 3364] | 14 | 6/8@1 μg | – | –
– | Ac-D-Nal^1, 4-Cl-D-Phe^2, D-Pal^3, His^5D-Pal(iPr)^6, Lys(iPr)^8, D-Ala^10-LHRH.2TFA [Compound 3982] | – | 8/8@1.00 | – | Histamine release ED50 ([1]; footnote c: run with Nal arg reference 0.28): 53 µg/mL; Histamine release ED50 ([1]; footnote d: run with Nal arg reference 0.11): 33 µg/mL
– | Ac-D-Nal^1, 4-Cl-D-Phe^2, D-Pal^3, Pal^5, D-Pal(iPr)^6, Lys(iPr)^8, D-Ala^10-LHRH.TFA [Compound 3430] | 10 | 3/8@1 μg | – | –
– | Ac-D-Nal^1, 4-Cl-D-Phe^2, D-Trp^3, D-Arg^6, Met(S^+Me)^8, D-Ala^10-LHRH.2TFA [Compound 3878] | – | 2.8@1.0 | 7/8@0.5 | –
– | Ac-D-Nal^1, 4-Cl-D-Phe^2, D-Trp^3, D-Met(S^+Me)^6, D-Ala^10-LHRH.2TFA [Compound 3879] | – | 0/8@1.0 | 6/8@0.5 | AO activity (AOA), in words [2]: high AOA
low histamine release | Ac-L-(or D)-Ada-Ala^1, 4-Cl-D-Phe^2, D-Pal^3, D-Cit^6-Lys(iPr)^8, D-Ala^10-LHRH.TFA [Compound 3369] | 93 | – | – | AO activity (AOA): rats which ovulate / rats treated ([2]; dose 5 μg per rat): 7/8@5 μg
